{"source": "patent US20080171032A1", "about": "“DIETARY SUPPLEMENT COMPOSITION AND METHOD OF USE FOR THE TREATMENT AND PREVENTION OF OXIDATIVE STRESS” (priority 2007, published 2008)", "origin": "cited, not measured here", "key": {"dermatomyositis": {"test_system": "dermatomyositis", "conditions": "two dermatomyositis patients, 15 to 20 grams daily"}, "scleroderma": {"test_system": "scleroderma", "conditions": "about 12 grams daily"}, "[1]": {"test_system": "advanced glycation end-products (AGEs)", "conditions": "600 mg/day prior to blood draw"}, "[2]": {"test_system": "serum lipid oxidation products", "conditions": "human, tocotrienol supplementation at 40 mg/day, versus placebo"}}}
{"compound": "CC1=C(/C=C/C(C)=C/C=C/C(C)=C/C=C/C=C(C)/C=C/C=C(C)/C=C/C2=C(C)C(=O)[C@@H](O)CC2(C)C)C(C)(C)C[C@H](O)C1=O", "note": "[Astaxanthin]", "values": [{"measurement": "protection against oxygen-induced mitochondrial membrane damage", "setting": "mitochondrial membranes", "value": "protection against oxygen-induced mitochondrial membrane damage"}]}
{"compound": "Nc1ccc(C(=O)O)cc1", "note": "[PABA, 4-aminobenzoic acid]", "values": [{"measurement": "solubility in water", "value": "slight"}]}
{"compound": "Nc1ccc(C(=O)[O-])cc1.[K+]", "note": "[POTABA, potassium para-aminobenzoate]", "values": [{"measurement": "clinical improvement", "setting": "dermatomyositis", "value": "Clinical improvement was noted"}, {"measurement": "patients with mild, moderate or marked skin softening", "setting": "scleroderma; 224 scleroderma patients", "value": "Ninety"}, {"measurement": "adverse events", "setting": "scleroderma; scleroderma patients", "value": "no significant adverse events were reported"}]}
{"compound": "C/C(=C(\\CCOP(=O)(O)O)SC(=O)c1ccccc1)N(C=O)Cc1cnc(C)nc1N", "note": "[benfotiamine]", "values": [{"measurement": "AGE formation in the cells of test subjects", "setting": "[1]", "value": "significant decrease"}, {"measurement": "glycoxidation in the cells of test subjects", "setting": "[1]", "value": "significant decrease"}]}
{"compound": "NCCC(=O)N[C@@H](Cc1cnc[nH]1)C(=O)O", "note": "[carnosine]", "values": [{"measurement": "effect on cells approaching senescence", "setting": "human fibroblasts; human fibroblasts approaching senescence supplemented with carnosine", "value": "markedly rejuvenated and their lifespan extended"}, {"measurement": "onset of cell senescence", "setting": "human fibroblasts; human fibroblasts exposed to 50 mM carnosine", "value": "reduction in onset of cell senescence"}]}
{"compound": "tocotrienol", "values": [{"measurement": "lowering of serum lipid oxidation products", "setting": "[2]", "value": "more effective in lowering serum lipid oxidation products than placebo"}]}
